One series deals with PCSK9 (biotinylated) (Homo sapiens, UniProt Q8NBP7). Description: Binding of compounds to PCSK9 by SPR (BIAcore S200, SA chip). The following applies: for Kd: SPR, immobilized biotinylated PCSK9, test compounds diluted 3-fold from 10 µM. How it is done: Table 1. Main experimental materials and instruments
• 1) Protein: PCSK9 (biotinylated) (Acro). The protein was dissolved in water to 200 µg/mL, and the solution was stored at -80 °C. • 2) Chip: SA chip. • 3) Running buffer: 1 × HBSP + 4% DMSO + 0.1 mM CaCl2.
• 1) The chip was pre-warmed to room temperature. • 2) The required buffer was prepared and filtered through a 0.22 µm filter membrane. • 3) The chip was loaded, and parameters were written to the chip. • 4) The PCSK9 protein was diluted to 50 µg/mL in PBS. • 5) An immobilization program was set on the BIAcore S200 instrument. • 6) The immobilization program was run. • 7) The final immobilization response value was 8000 RU, and the maximum response value was 49.4 RU.
1) The compounds were serially diluted 3-fold in the running buffer. The reference compound was diluted 3-fold from 0.4 µM. The test compounds were diluted 3-fold from 10 µM. 2) A dissolution correction buffer was prepared according to the table below: Table 2. Dissolution correction buffer
3) The "LMW multi kinetics" program of the instrument was set as a running program for compound testing. • a) The association time was set at 100 s, and the dissociation time was set at 300 s. 4) The compound testing program was run.
1) Rmax = (MWanalyte/MWligand) × RL × Sm [formula] When affinity fitting was used to fit a curve, the response value of the highest concentration should be close to the fitted Rmax value for an optimal result. 2) Solvent correction and compound concentration gradients were checked. 3) The baseline, binding, and positive compound results in the test report were checked. 4) A suitable fitting method was selected according to the actual association to fit a curve. 5) Whether the fitting result met the data quality assessment criteria of the instrument was checked. Table 3. The binding of compounds of the present disclosure to PCSK9 (KD)
For orientation: In SPR one partner is held on a chip, and binding of the other changes the refractive index at the surface.

Series [1] is described as follows: Stability test in hepatocytes (metabolic clearance rate). The class given is in vitro ADME. The following applies: cryopreserved hepatocytes, mouse hepatocytes, 0.5 × 10^6 cells/mL, up to 120 min. How it is done: • 1) The test compounds and the control drug verapamil powder were dissolved in DMSO to prepare high-concentration stock solutions. Before use, the stock solutions were diluted with DMSO to prepare 100 µM working solutions. The final concentrations of the test compounds and verapamil were 1 µM. • 2) A tube of cryopreserved hepatocytes was taken. It was ensured that the hepatocytes were still in a low-temperature frozen state before thawing. The hepatocytes were quickly placed in a 37 °C water bath, gently shaken until all ice crystals were dispersed, sprayed with 70% ethanol, and then transferred to a biosafety cabinet. • 3) The contents of small tubes of hepatocytes from different species were poured into a centrifuge tube containing 50 mL of thawing culture medium and centrifuged at 100 g for 10 min. After centrifugation, the thawing culture medium was pipetted off, and a sufficient amount of incubation culture medium was added to obtain a cell suspension with a cell density of about 1.0 × 10^6 cells/mL. • 4) Hepatocytes were counted using Cellometer Vision, and the viable cell density was determined. The viability of hepatocytes must be greater than 75%. The hepatocyte suspension was diluted with the incubation culture medium to a viable cell density of 0.5 × 10^6 cells/mL. • 5) 198 µL of the viable cell suspension was transferred to a 96-well deep-well plate, and the deep-well plate was placed on a vortexer and pre-heated in an incubator for 10 min. In the experiment, the incubation was performed in duplicate. • 6) 2 µL of the 100 µM test compound or verapamil solution was added to each well to start a reaction, and the deep-well plate was placed back on the vortexer in the incubator. • 7) The samples were incubated. At 0 min, 15 min, 30 min, 60 min, 90 min, and 120 min, 25 µL of the suspension was taken, and 150 µL of acetonitrile containing an internal standard was added to stop the reaction. After 10 min of vortexing, the mixture was centrifuged at 3220 g at 4 °C for 45 min. […] After thorough mixing, the mixture was analyzed by UPLC-MS/MS.
All data calculations were performed through Microsoft Excel software. The peak areas were determined through an extracted ion chromatogram. Through linear fitting of the natural logarithm of the parent drug […] percentage versus time, the in vitro half-life (T1/2) of the parent drug was determined.
The in vitro half-life (T1/2) was calculated through the slope: In vitro T1/2 = 0.693/k [formula]
The in vitro clearance rate (in µL/min/10^6 cells) was calculated using the following formula: In vitro CLint = kV/N, [formula] • where V = the incubation volume per well (0.2 mL); • N = the number of cells per well (0.1 × 10^6 cells). […]

Another series relates to Mouse hepatocytes. Description: Metabolite testing in mouse hepatocytes (parent drug remaining). It is filed as in vitro ADME, Mice. The note with it: mouse hepatocytes (ICR/CD-1, male), 10 µM. The protocol:
The objective of this experiment was to identify possible metabolites of a test compound in hepatocytes of different species and speculate about its possible metabolic pathway. The test concentration of the test compound was 10 µM.
Mouse hepatocytes were preserved in liquid nitrogen.
The test compound and the control drug verapamil powder were dissolved in DMSO to prepare high-concentration stock solutions. Before use, the stock solutions were diluted with DMSO to prepare 2 mM working solutions. The final concentrations of the test compound and verapamil were 10 µM.
• 1) Before use, the hepatocyte thawing solution and the incubation solution were placed in a 37 °C water bath and pre-heated for at least 15 min. • 2) A tube of cryopreserved hepatocytes was taken. […] After centrifugation, the thawing culture medium was pipetted off, and a sufficient amount of incubation culture medium was added to obtain a cell suspension with a cell density of about 1.5 × 10^6 cells/mL. • 4) Hepatocytes were counted using Cellometer Vision, and the viable cell density was determined. […]
• 1) 1 µL of the 2 mM test compound solution was pipetted into a 24-well incubation plate, and 199 µL of the hepatocyte suspension was then added to start a reaction. […] 60 µL of the supernatant was well mixed with 60 µL of purified water, and the mixture was then analyzed by UHPLC-MS/MS. […]

For series [2], the system named is LDLR protein level of HepG2 cells. Briefly: Effect on LDLR level of HepG2 cells stimulated with PCSK9 D374Y (human LDLR ELISA). The note with it: 75 µM compound; for LDLR up-regulation level" (% control): 4 nM PCSK9 D374Y, 48 h, mean of three duplicate wells; for LDLR protein level result relative to reference compound 1: fold of the result of reference compound 1. The class given is cell-based. The protocol: HepG2 cells were seeded in a 96-well plate at 30,000 cells/well. The next day, 4 nM PCSK9 D374Y was added to each well to stimulate cells, and the cells were treated with a test compound at the same concentration. Three duplicate wells were set for each sample. The cells were cultured at 37 °C with 5% carbon dioxide for 48 h. The cells were washed twice with PBS, and the supernatant was discarded. The cells were then placed on ice and treated with an RIPA lysis buffer containing protease and phosphatase inhibitors at 50 µL/well. The cell culture plate was frozen overnight in a -80 °C freezer, thawed, then lysed on ice for 30 min, and then centrifuged at a low temperature for 15 min. The cell lysate was diluted 20-fold, and an ELISA was performed. A sample or a reference standard was added to a coated well plate at 50 µL/well, and the plate was incubated at room temperature for 2 h. The plate was washed 4 times with a washing buffer by aspiration, and a human LDLR conjugated antibody was added at 200 µL/well. The plate was incubated at room temperature for 2 h. The washing step was repeated, and a substrate solution was added at 200 µL/well. After 30 min, a stop solution was added at 50 µL/well, and the OD was measured at 450 nm. After the LDLR concentration in the sample wells was calculated according to a standard curve, the LDLR increase rate was calculated using the formula (sample value - mean of control wells) / mean of control wells. Data were processed using GraphPad Prism 8. Table 6. The effects of reference compound 1 and example compounds at a concentration of 75 µM on the LDLR protein level of HepG2 cells
Background: An ELISA detects its analyte on a solid surface through an enzyme-linked reagent.

The nature of series [3]: In vivo pharmacokinetic experiment in mice. The note with it: oral, 10 mg/kg, fold of reference compound 1.
Method: C57BL6J mice were used as test animals. […] Reference compound 1 and the example compound were both administered at a dose of 10 mg/kg. Procedure: Mice were intragastrically dosed with reference compound 1 and the example compound. At 0.25 h, 0.5 h, 1 h, 2 h, 4 h, 6 h, 8 h, and 24 h post-dose, blood samples (about 0.03 mL) were collected via peripheral venipuncture, placed into test tubes containing EDTA-K2, and centrifuged at around 4 °C at 4000 g per minute for 5 min to separate plasma, and the plasma was stored at -75 °C.
Determination of the content of the test compound in mouse plasma after the compound (at different concentrations) was orally administered: 10 µL of the mouse plasma collected at each time point post-dose was vortexed with 5 µL of a blank solution and 200 µL of a solution of dexamethasone (internal standard) in acetonitrile for 30 s. The mixture was centrifuged for 15 min (3900 rpm), and 12 µL of the supernatant was taken for LC/MS/MS analysis.
A short description of a further series: in vivo. The following applies: male, C57BL6J, mouse, plasma, po, 10 mg/kg.

What is called Kd is a measure of binding affinity in units of concentration. A higher Kd goes with lower affinity. For orientation: hepatocyte CLint means the rate of metabolic loss divided by the concentration. The term AUC(0-t) denotes exposure summed from dosing to a finite time, without extrapolation to infinity. Read a low AUC(0-t) as less exposure. A word on the Cmax: it is the highest concentration seen after dosing. By half-life is commonly meant how long it takes for the measured level to halve. Higher therefore signals slow decline.

PCSK9 (biotinylated), sequence (Q8NBP7 153-692): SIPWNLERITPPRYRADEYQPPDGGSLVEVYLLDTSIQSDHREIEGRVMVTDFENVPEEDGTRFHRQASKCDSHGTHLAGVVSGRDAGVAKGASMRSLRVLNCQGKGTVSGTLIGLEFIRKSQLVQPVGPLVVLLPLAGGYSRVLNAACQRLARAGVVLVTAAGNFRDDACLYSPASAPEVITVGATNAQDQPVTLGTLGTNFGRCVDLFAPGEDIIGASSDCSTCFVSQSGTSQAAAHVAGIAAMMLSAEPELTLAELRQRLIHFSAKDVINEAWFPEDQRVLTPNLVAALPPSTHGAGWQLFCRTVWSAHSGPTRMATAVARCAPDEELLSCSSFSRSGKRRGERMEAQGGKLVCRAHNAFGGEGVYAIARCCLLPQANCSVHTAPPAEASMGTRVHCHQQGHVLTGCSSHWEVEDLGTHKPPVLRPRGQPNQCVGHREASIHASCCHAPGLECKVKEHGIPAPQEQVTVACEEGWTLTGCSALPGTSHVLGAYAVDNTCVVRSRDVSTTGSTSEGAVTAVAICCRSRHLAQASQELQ

In the case of `O=c1ccccn1-c1ccc(N[C@H]2CC[C@H](Nc3ncc4c(n3)CCC4)C2)nc1` [Example 1, 1-(6-{[(1S,3S)-3-(6,7-Dihydro-5H-cyclopenta[1,2-d]pyrimidin-2-ylamino)cyclopentyl]amino}pyridin-3-yl)-1,2-dihydropyridin-2-one], the dissociation constant (Kd) at PCSK9 (biotinylated) came out at 26.3 nM. The hepatocyte CLint at 1 µM in series [1] amounted to 13.2 µL/min/1e6 cells.

As for `O=c1ccccn1-c1ccc(N[C@H]2CC[C@H](Nc3ncc4c(n3)C(F)(F)CC4)C2)nc1` [Example 2, 1-(6-{[(1S,3S)-3-[(7,7-Difluoro-6,7-dihydro-5H-cyclopenta[1,2-d]pyrimidin-2-yl)amino]cyclopentyl]amino}pyridin-3-yl)-1,2-dihydropyridin-2-one], the Kd on PCSK9 (biotinylated) is 68.7 nM. The same compound returned a hepatocyte CLint at 1 µM in series [1] of 21 µL/min/1e6 cells.

As to `O=c1ccccn1-c1ccc(N[C@H]2CC[C@H](Nc3ncc4c(n3)OCCO4)C2)nc1` [Example 3, 1-(6-{[(1S,3S)-3-(6,7-Dihydro[1,4]dioxino[3,2-d]pyrimidin-2-ylamino)cyclopentyl]amino}pyridin-3-yl)-1,2-dihydropyridin-2-one], binding on PCSK9 (biotinylated) was characterised by a dissociation constant (Kd) of 75.8 nM. Further, at PCSK9 (biotinylated) (fold of binding strength versus reference compound 2), the “binding stronger than that of the reference compound 2” value is recorded as “more than 10 times”. Besides, in the series with Mouse hepatocytes, the “Normalized parent drug remaining proportion (%) after 240 min of incubation” value worked out at 98.3%. The “LDLR up-regulation level" (% control)” value in series [2] came to 160 % control. Moreover, the hepatocyte CLint at 1 µM in series [1] was below 0.1 µL/min/1e6 cells. In addition, the “plasma exposure level relative to reference compound 1” value in series [3] is listed as around 3 times. Besides, in “in vivo”, the AUC(0-t) turned out to be 48000 ng·h/mL, the highest level (Cmax) was 11400 ng/mL and the half-life is 2.75 h.

As for `O=c1ccccn1-c1cnc(N[C@H]2CC[C@H](Nc3ncc4c(n3)OCCO4)C2)c(F)c1` [Example 6, 1-(5-Fluoro-6-{[(1S,3S)-3-(6,7-dihydro[1,4]dioxino[3,2-d]pyrimidin-2-ylamino)cyclopentyl]amino}pyridin-3-yl)-1,2-dihydropyridin-2-one], the “LDLR up-regulation level" (% control)” value in series [2] was 155 % control.

As to `O=c1ccccn1-c1cnc(N[C@H]2CC[C@H](Nc3ncc4c(n3)OCCO4)C2)cn1` [Example 7, 1-(5-{[(1S,3S)-3-(6,7-Dihydro[1,4]dioxino[3,2-d]pyrimidin-2-ylamino)cyclopentyl]amino}pyrazin-2-yl)-1,2-dihydropyridin-2-one], the “LDLR protein level result relative to reference compound 1” value in series [2] is 1.16 times.

On to `O=c1cccnn1-c1ccc(N[C@H]2CC[C@H](Nc3ncc4c(n3)OCCO4)C2)nc1` [Example 5, 2-(6-{[(1S,3S)-3-(6,7-Dihydro[1,4]dioxino[3,2-d]pyrimidin-2-ylamino)cyclopentyl]amino}pyridin-3-yl)-3H,2H-1,2-pyridazin-3-one], for which, in series [2], the “LDLR up-regulation level" (% control)” value is listed as 188 % control.

Take `O=c1ccccn1-c1ccc(N[C@H]2CC[C@H](Nc3ncc4sccc4n3)C2)nc1` [Reference compound 2, reference compound]: in series [1], the intrinsic clearance (hepatocyte CLint) at 1 µM turned out to be 15.7 µL/min/1e6 cells.

On to `O=C1c2ccccc2CN1c1cnc(N[C@H]2CC[C@H](Nc3ncc4c(n3)OCCO4)C2)cn1` [Example 8, 2-(5-{[(1S,3S)-3-(6,7-Dihydro[1,4]dioxino[3,2-d]pyrimidin-2-ylamino)cyclopentyl]amino}pyrazin-2-yl)-2,3-dihydro-1H-isoindol-1-one], for which the “LDLR protein level result relative to reference compound 1” value in series [2] was 1.04 times.

`O=c1ccccn1-c1ccc(N[C@H]2CC[C@H](Nc3ncc4ccccc4n3)C2)nc1` [Example 11, 1-(6-{[(1S,3S)-3-(Quinazolin-2-ylamino)cyclopentyl]amino}pyridin-3-yl)-1,2-dihydrop yridin-2-one]: on PCSK9 (biotinylated), the Kd amounted to 180 nM.

These data come from EP4752145A1, “DIAMINOCYCLOPENTYL SUBSTITUTED HETEROARYL DERIVATIVES, USE THEREOF AND PREPARATION METHOD THEREFOR” (Tuojie Biotech (Shanghai) Co., Ltd., priority 2023, dated 2025).
